Assay results: ChEMBL document CHEMBL5244250, “Natural sesquiterpenoid oligomers: A chemical perspective” (Eur J Med Chem, 2020)
≈ marks a conversion by molar mass, not a printed value.

Columns and labels:
[1] = system: PC-12; assay: Neuroprotective activity against glutamate-induced neurotoxicity in rat PC-12 cells; type: functional, cell-based
[2] = system: A549; assay: Cytotoxicity against human A549 cells incubated for 72 hrs by CCK8 assay; type: functional, cell-based; settings: A549, 72 h
[3] = system: HL-60; assay: Cytotoxicity against human HL-60 cells incubated for 72 hrs by CCK8 assay; type: functional, cell-based; settings: HL-60, 72 h
[4] = system: HT-29; assay: Cytotoxicity against human HT-29 cells incubated for 72 hrs by CCK8 assay; type: functional, cell-based; settings: HT-29, 72 h
[5] = system: Bel-7402; assay: Cytotoxicity against human Bel-7402 cells incubated for 72 hrs by CCK8 assay; type: functional, cell-based; settings: Bel-7402, 72 h
[6] = system: Plasmodium falciparum; assay: Antiplasmodial activity against Plasmodium falciparum; type: functional, organism-based
[7] = system: CCRF-CEM; assay: Cytotoxicity against human CCRF-CEM cells; type: functional, cell-based
[8] = system: RAW264.7; assay: Anti-inflammatory activity in LPS induced mouse RAW264.7 cells assessed as inhibition of NO production by MTT method; type: functional, cell-based
[9] = system: HL-60; assay: Cytotoxicity against human HL-60 cells; type: functional, cell-based
[10] = system: KB; assay: Cytotoxicity against human KB cells assessed as reduction in cell viability; type: functional, cell-based
[11] = system: RAW264.7; assay: Anti-inflammatory activity in LPS induced mouse RAW264.7 cells assessed as inhibition of NO production pretreated for 1 hr followed by LPS stimulation and measured after 18 hrs by MTT assay; type: functional; settings: time 19 hrs, read-out: ED50 (the source's name)
[12] = system: HepG2; assay: Cytotoxicity against human HepG2 cells incubated for 48 hrs by MTT based colorimetry assay; type: functional, cell-based; settings: HepG2, 48 h
[13] = system: CCRF S-180; assay: Cytotoxicity against mouse CCRF S-180 cells incubated for 48 hrs by MTT based colorimetry assay; type: functional, cell-based; settings: CCRF S-180, 48 h
[14] = system: MGC-803; assay: Cytotoxicity against human MGC-803 cells incubated for 48 hrs by MTT based colorimetry assay; type: functional, cell-based; settings: MGC-803, 48 h
[15] = system: RAW264.7; assay: Anti-inflammatory activity in LPS induced mouse RAW264.7 cells assessed as inhibition of NO production measured after 24 hrs by CCK-8 method; type: functional, cell-based; settings: RAW264.7, 24 h

Structure (SMILES): C=C1CC[C@H]2C(=C)CC[C@@H]3[C@H](OC(=O)[C@]3(CC(C)=O)C[C@@H]3CC[C@H]4C(=C)CC[C@H]5C(=C)C(=O)O[C@@H]5[C@@H]34)[C@@H]12
- EC50 [1]: 2110 nM

Structure (SMILES): C=C1CC[C@H]2C(=C)C(=O)O[C@@H]2[C@@H]2[C@H]1[C@@H](C[C@@H]1C(=O)C3C4[C@H]1[C@H]1OC(=O)C(=C)[C@@H]1CC[C@]4(O)CC[C@]31C(=O)C[C@H]3C(=C)CC[C@H]4C(=C)C(=O)O[C@@H]4[C@H]31)C(=O)[C@@]2(O)CC[C@@H]1C(=O)C[C@H]2C(=C)CC[C@H]3C(=C)C(=O)O[C@@H]3[C@@H]12 (stereo not given in full)
- IC50 [2]: 2000 nM
- IC50 [3]: 2000 nM
- IC50 [4]: 2000 nM
- IC50 [5]: 2000 nM

Structure (SMILES): C/C=C(\C)C(=O)O[C@@H]1CC([C@H](O)[C@]2(C)C=C3OC(=O)C4=C3[C@H]2[C@H]2OC(=O)[C@H](C)[C@@H]2[C@H](OC(=O)/C(C)=C/C)C4)=C2C(=O)C=C(C)[C@@H]2[C@H]2OC(=O)[C@H](C)[C@@H]21
- IC50 [6]: 2000 nM

Structure (SMILES): C=C1C(=O)O[C@H]2C[C@H](C)[C@@]34C[C@@H](C[C@@]35C(=O)O[C@H]3C=C(C)[C@H]6CC[C@@](C)(O)[C@@H]6C[C@@H]35)C(C)=C4C[C@H]12
- IC50 [7]: 2030 nM

Structure (SMILES): C=C1CC[C@H]2C(=C)CC[C@@H]3[C@H](OC(=O)[C@H]3C[C@@]3(CC(C)=O)C(=O)O[C@@H]4C/C(C)=C\CC/C=C(/C)C[C@H]43)[C@@H]12
- IC50 [8]: 4890 nM

Structure (SMILES): C=C1C(=O)O[C@H]2C[C@H](C)C3=C(C[C@H]12)[C@@]1(C)C[C@H]3C[C@@]12C(=O)O[C@@H]1C[C@@]3(C)[C@@H](O)C[C@@H](O)C(=C)[C@@H]3C[C@@H]12
- IC50 [7]: 140 nM

Structure (SMILES): COC(=O)/C(C)=C1\C(=O)[C@H](O)[C@@]2(C)[C@@H]3C[C@@H]3C3=C[C@@]4(C)[C@@]5(C)[C@@H]6C[C@@H]6[C@@]6(O)COC(=O)/C(C)=C/COC(=O)C(O)CC(=O)OCC7=C(C[C@@H]65)[C@@]4(OC7=O)[C@@H]1[C@]32OO (stereo not given in full)
- IC50 [9]: 30 nM

Structure (SMILES): C=C1C(=O)O[C@H]2C[C@H](C)C3=C(C[C@H]12)[C@]1(C)C[C@H]3C[C@@]12C(=O)O[C@@H]1C[C@H](C)C(CCC(C)=O)=CC[C@@H]12
- IC50 [9]: 7500 nM

Structure (SMILES): C=C1CCC[C@]2(C)CC[C@@H](C(C)C)[C@H](NC(=O)[C@H]3C[C@H](O)C[C@@H](C(=O)N[C@H]4[C@H](C(C)C)CC[C@@]5(C)CCCC(=C)[C@]45C)N3CCC(=O)OC)[C@@H]12
- IC50 [10]: 10.6 µg/mL (≈ 15.2 µM)

Structure (SMILES): C=C1C(=O)O[C@H]2C[C@H](C)C3=C(C[C@H]12)[C@]1(C)C[C@@H]3C[C@@]12C(=O)O[C@@H]1C[C@@]3(C)[C@@H](O)C[C@@H](O)C(=C)[C@@H]3C[C@@H]12
- IC50 [7]: 140 nM

Structure (SMILES): C=C1CC[C@H]2C(=C)C(=O)O[C@@H]2[C@@H]2[C@H]1[C@@H](C[C@@H]1C(=O)C3C4[C@H]1[C@H]1OC(=O)C(=C)[C@@H]1CC[C@@]4(O)CC[C@]31C(=O)C[C@H]3C(=C)CC[C@H]4C(=C)C(=O)O[C@@H]4[C@H]31)C(=O)[C@@]2(O)CC[C@@H]1C(=O)C[C@H]2C(=C)CC[C@H]3C(=C)C(=O)O[C@@H]3[C@@H]12 (stereo not given in full)
- IC50 [2]: 2000 nM
- IC50 [3]: 2000 nM
- IC50 [4]: 2000 nM
- IC50 [5]: 2000 nM

Structure (SMILES): C=C1C(=O)O[C@H]2C[C@H](C)C3=C(C[C@H]12)[C@@]1(C)C[C@@H]3C[C@@]12C(=O)O[C@H]1C=C(C)[C@H]3CC[C@@](C)(O)[C@@H]3C[C@@H]12
- IC50 [7]: 2030 nM

Structure (SMILES): C[C@@H]1CC(=O)c2c3c(nc4c2[C@@]1(C)[C@H]1[C@@H](C4=O)C1(C)C)C[C@]1(C)C(=CCC[C@H]1C)C3=O
- EC50 [11]: 5730 nM

Structure (SMILES): CC(=O)C1=C(Oc2oc3c(c2C)C[C@@]2(C)[C@H](CCC[C@@H]2C)[C@@H]3O)C[C@H]2CCC[C@H](C)[C@@]2(C)C1
- IC50 [12]: 11900 nM
- IC50 [13]: 11900 nM
- IC50 [14]: 11900 nM

Structure (SMILES): C=C1C(=O)O[C@H]2C[C@@H](C)C3=C(C[C@H]12)[C@@]1(C)C[C@@H]3C[C@@]12C(=O)O[C@@H]1C[C@@]3(C)[C@@H](O)C[C@@H](O)C(=C)[C@@H]3C[C@@H]12
- IC50 [7]: 140 nM

Structure (SMILES): C=C1CC[C@H]2C(=C)CC[C@@H]3[C@H](OC(=O)[C@H]3C[C@@]3(CC(C)=O)C(=O)O[C@@H]4[C@H]5C(C)=CCCC5(C)CC[C@H]43)[C@@H]12 (stereo not given in full)
- IC50 [8]: 7240 nM

Structure (SMILES): C=C1C(=O)O[C@H]2[C@@H]1CCC1=C(C)[C@H]3CC1(C[C@@]31C(=O)O[C@H]3C[C@H](C)[C@@]45C[C@@]6(C(=O)O[C@@H]7C[C@H](C)C(CCC(C)=O)=CC[C@@H]76)[C@@H](C(C)=C4C[C@@H]31)C5OC(C)=O)[C@H]2C (stereo not given in full)
- IC50 [15]: 1900 nM
